Measurements as given in patent US9125877B2, “Use of kauranes compounds in the manufacture of medicament” (priority 2004, dated 2015).
“Also recorded” adds a separate entry of the source. Like-named read-outs stand apart in the source and are kept apart here.

Experiments:
arterial pressure = details: 25 mg/kg intraperitoneal in rats; cited from earlier work
[1] = system: ischemic myocardium, myocytes and mitochondria; experiment: Morphology of ischemic myocardium under light and electron microscope; format: in vivo, Sprague-Dawley rats
Method: At the end of experiments, the ischemic and non-ischemic normal myocardium were excised at the ischemic region respectively from both control or testing groups (compound A 1 mg/kg), and from sham-operated animals at respective region of the heart. The tissues were fixed with paraformaldehyde, embedded in wax, cut into thin or ultra-thin sections, stained and viewed under light or electron microscope.
Analogously to Example 5 except the testing group treated with compound B (2 mg/kg). Myocardiac tissues from non-ischemia, ischemia and testing group animals were excised and prepared as noted above. Myocytes and its ultra structure were examined under light and transmission electron microscope. […] The densities of crestae and matrix appear normal, and the granules normally distributed within mitochondria. […] The histological results were similar to the results from the animal treated with compound A (1 mg/kg) and indicate significant protective effects of compound B on myocardium by alleviating the ischemic damage of myocytes and mitochondria.

[2] = system: ventricular tachycardia and fibrillation caused by coronary ischemia; experiment: Arrhythmia (VT, VF) during cardiac ischemia by coronary occlusion; format: in vivo, Sprague-Dawley rats; details: for VF Duration / VT Duration / VTorVF Onset / VT + VF score: occlusion of coronary for 20 min; for VT + VF score: score = (duration of VT × 1) + (duration of VF × 2)
Method: (§1) Rats were anesthetized, the tracheotomy was performed and an intubation cannula was connected to a respirator for artificial respiration. Arterial blood pressure monitored by a pressure gauge via a femoral artery. A Miller pressure gauge was intervened into left ventricular chamber via a carotid artery to monitor ventricular pressure. The pressure gauges were connected to a Power-lab biological real-time data recording system. ECG was monitored and recorded via subcutaneous needle probes on the arms of rats. The parameters recorded including: Mean arterial blood pressure (MAP), left ventricular systolic pressure (LVSP), the first derivatives of left ventricular pressure (±dp/dtMax), left ventricular diastolic pressure (LVDP), left ventricular end diastolic pressure (LVEDP) and heart rate (HR).
(§2) The chest was open by a left-side thoracotomy between the 4th intercostals space. The pericardium was opened to expose the heart. A stainless needle and a silk suture were placed around the left coronary artery (LCD) and a loose snare ligation was formed. After complete the surgery, the animals were allowed to stabilize for 10 minus before the occlusion of LCD by tightening the snare. A success in occlusion was associated with an area of pericardial cyanosis, an elevation of T wave or ST segment in ECG. The ischemia period of occlusion was maintained from 20 or 30 minus. Cardiac reperfusion was then achieved by releasing of the snare and was confirmed by hyperemic blushing of the previous ischemic area of cyanosis and gradually recovery of the changes in ECG signals. The reperfusion period was maintained for 50 to 80 minus. ECG, MAP and other cardiodynamic data were recorded before the ischemia (control), and during the periods of ischemia and reperfusion.
Arrhythmia of ventricular tachycardia (VT) and fibrillation (VF) are the main causes of death in clinic. In the control group during ischemia, VT occurred in all of the 11 animals, VF occurred in 10 out of the 11 animals, and 3 out of the 11 animals were dead due to continuation of VF. […] The results from both control and testing groups during cardiac ischemia including the frequency of occurrence, onset time and duration of the VT and VF are shown in table 3.

ischemic myocardium = experiment: Infarct size of myocardium after ischemia-reperfusion (Evans blue); format: in vivo, Sprague-Dawley rats; details: compound A 1 mg/kg; control 58.6±4.7%; weight of infarct tissue/(infarct + ischemia tissue)
From the text: as §2, with “The reperfusion period was maintained for 50 to 80 minus.” left out
Determination of the infarct size of myocardium: In both control and testing groups, After the end of reperfusion period, the coronary was occluded, Evans blue dye (1%, 0.5 ml) was injected to determine the ischemic and non-ischemic area of myocardium. […] After weighing the respective tissue samples, the infarction size of myocardium was calculated and express as following: Size of infarction=weight of infarct tissue/(weight of infarct tissue+weight of ischemia tissue) x %.

cerebral ischemia = experiment: Decapitated mouse model of brain ischemia (mouth-opening); format: in vivo, mice
Method: Decapitated mouse model: The mouse first decapitated and the movement of mouth opening was monitored as a sign of respiration. The frequency and duration of mouth-opening was used as an index of cerebral function after decapitation.
The animals were randomly assigned into three groups (n=8, equal number in sex): Control group, only vehicle saline were given; Testing group, compound A (4 mg/kg) dissolved in saline were given; and Positive control group, a reference compound Edaravone (8 mg/kg) dissolved in saline were given, Edaravone is an anti-oxidation drug and has protective effects on neuronal injury (Granl A. et al. 1996).
Vehicle or compounds were administrated intraperitonealy 30 minus before decapitation.

mice = details: cited from earlier work
[3] = No obvious toxicity dose, administered intravenously (the invention); format: in vivo
[4] = intravenous injection, previously reported; cited from earlier work
[5] = system: ischemic heart (occlusion of left coronary artery and reperfusion); experiment: Cardiodynamic parameters in the cardiac ischemia-reperfusion rat model; format: in vivo, Sprague-Dawley rats
Method: as §1, §2
Control group: occlusion of coronary/ischemia-reperfusion. Testing group: occlusion of coronary/ischemia-reperfusion plus compound A or B
In part of the experiments, the time periods for occlusion and release of coronary were set for 30 min and 80 min, in order to enhance the results of ischemia-reperfusion.

rats = details: cited from earlier work
[6] = system: ischemic heart (left anterior descending coronary artery); experiment: Pig coronary ischemia-reperfusion by balloon-tip catheter in LAD; format: in vivo
From the text: At an extremely high dose, the said effects may be abrogated. In a pig study in the invention, a balloon-tip catheter was intervened into left anterior descending coronary artery (LAD) under the guidance of X-ray angiograph. Coronary ischemia and reperfusion was reproduced by inflating or deflating the balloon. […] Kaurene compounds at this large dose may initiate an opposite or undesired effect which can diminish or override the therapeutic effects mentioned above.

Solubility in water = format: physicochemical; details: free acid, before salt formation
Method: The salts can be sodium, potassium or other inorganic salts. A preferred method is to use sodium. The method is the following: A solution of […] of NaOH is prepared. The liquid sodium salt of compound A or B was formed by dissolving 1 g of the compound A or B into 10 ml of the above NaOH solution and adjusting the PH to neutral. This liquid sodium salt can be further diluted with sterile water or mixed with pharmaceutical carrier at needed concentration for parenteral administration. It can be stored at room temperature.

[7] = reported; large amount, under certain condition in vitro; cited from earlier work
[8] = system: ischemic heart (occlusion of left coronary artery and reperfusion); experiment: Cardiodynamic parameters in the cardiac ischemia-reperfusion rat model; format: in vivo, Sprague-Dawley rats; details: stevioside 10 to 15 mg/kg, rats
[9] = 4 mg/kg intraperitoneal 30 min before decapitation
[10] = compound A 1 mg/kg i.v., before ischemia
[11] = compound A 1 mg/kg i.v., ischemia
[12] = compound A 1 mg/kg i.v., reperfusion
[13] = 8 mg/kg intraperitoneal 30 min before decapitation
[14] = compound B 2 mg/kg, before ischemia
[15] = compound B 2 mg/kg, during ischemia
[16] = compound B 2 mg/kg, during reperfusion

C[C@@]12CC[C@@H]3[C@@](CC[C@H]4[C@@]3(C)CCC[C@@]4(C)C(=O)O)(CC1=O)C2 [Compound A, (4α,8β,13β)-13-methyl-16-oxo-17-norkauran-18-oic acid]
effect of a large dose on vessels and arterial pressure (arterial pressure): vasodilation and lowering of arterial pressure
morphology of ischemic myocardium under light microscope ([1]; compound A 1 mg/kg, 100× microscope): Destruction of myocytes was not evident
ultra structure of ischemic myocytes under electron microscope ([1]; compound A 1 mg/kg, ×12000, comparing with non-ischemia myocytes): no observable damages of the myocytes and mitochondria
VF Duration ([2]; 1 mg/kg): 1 s
VT Duration ([2]; 1 mg/kg): 12 + 6 sec
VTorVF Onset ([2]; 1 mg/kg): 730 + 166 sec
VT + VF score ([2]; 1 mg/kg): 14 + 7
survival of cardiac ischemia ([2]; compound A 1 mg/kg, control: 3 out of 11 dead due to continuation of VF): all the animal survived
size of infarction after ischemia (ischemic myocardium): 45.8±2.9%
Duration of mouth-opening (cerebral ischemia; [9]): 22.9 ± 5 s
Frequency of mouth-opening (cerebral ischemia; [9]): 14.0 ± 3.2
minimum oral lethal dose (mice): 5060 mg/kg
no obvious toxicity dose [3]: up to 40 mg/kg
median lethal dose (LD50) [4]: 650 mg/kg
hypotension effect ([5]; 1 mg/kg intravenous in rats): no such hypotension effect
+dp/dt Max.LVSP [5, 10]: 8543 ± 486 mmHg/sec
HR [5, 10]: 367 ± 13 beat/min
LVSP [5, 10]: 111 ± 4 mmHg
MAP [5, 10]: 73 ± 3 mmHg
+dp/dt Max.LVSP [5, 11]: 7468 ± 558 mmHg/sec
HR [5, 11]: 375 ± 10 beat/min
LVSP [5, 11]: 103 ± 3 mmHg
MAP [5, 11]: 70 ± 5 mmHg
+dp/dt Max.LVSP [5, 12]: 8431 ± 340 mmHg/sec
HR [5, 12]: 394 ± 7 beat/min
LVSP [5, 12]: 114 ± 5 mmHg
MAP [5, 12]: 76 ± 3 mmHg
LD50 (rats; intraperitoneal, rats): 617 mg/kg
median lethal dose (LD50) (rats; intravenous injection, rats): 503 mg/kg
major symptoms of toxicity at lethal dose (rats; lethal dose): vasodilation and renal failure
minimum oral lethal dose (rats; oral, rats): 3160 mg/kg
oral median lethal dose (LD50) (rats; oral, rats): 3160 mg/kg
sever arrhythmia induced by ischemia ([6]; pig pretreated at a small dose): effectively prevented
cardiac contractile function ([6]; pig, extremely high dose (20 times more) administered via LAD): significant decrease in cardiac contractile function
effects on heart before ischemia ([6]; pig, small dose): no observable effects on heart
solubility in water (Solubility in water): not Readily Dissolved in Water

C=C1C[C@@]23CC[C@H]4[C@@](C)(CCC[C@@]4(C)C(=O)O)[C@@H]2CC[C@]1(O)C3 (single isomer, unassigned; ent-13) [Compound B, ent-13-hydroxykaur-16-en-18-oic acid]
morphology of ischemic myocardium under light and transmission electron microscope ([1]; compound B 2 mg/kg, comparing with non-ischemia myocytes): Damages of both myocytes and mitochondria were not evident
VF Duration ([2]; 2 mg/kg): 1 s
VT Duration ([2]; 2 mg/kg): 21 + 12 sec
VTorVF Onset ([2]; 2 mg/kg): 660 + 178 sec
VT + VF score ([2]; 2 mg/kg): 22 + 13
animals dead during cardiac ischemia ([2]; compound B 2 mg/kg, n=5, control: 3 out of 11 dead): none of the animals are dead
mutagenic effects [7]: certain mutagenic effects; also recorded: may be mutagenic
Duration of mouth-opening (cerebral ischemia; [13]): 20.1 ± 4.1 s
Frequency of mouth-opening (cerebral ischemia; [13]): 12.8 ± 2.7
+dp/dtMax. LVSP [5, 14]: 8609±543 mmHg/sec
LVSP [5, 14]: 112±5 mmHg
+dp/dtMax. LVSP [5, 15]: 7592±433 mmHg/sec
LVSP [5, 15]: 104±4 mmHg
+dp/dtMax. LVSP [5, 16]: 8362±498 mmHg/sec
LVSP [5, 16]: 110±4 mmHg
oral median lethal dose (LD50) (rats; rat, in vivo, po): 1500 mg/kg
solubility in water (Solubility in water): not Readily Dissolved in Water

C=C1C[C@@]23CC[C@H]4[C@@](C)(CCC[C@@]4(C)C(=O)O[C@@H]4O[C@H](CO)[C@@H](O)[C@H](O)[C@H]4O)[C@@H]2CC[C@]1(O[C@@H]1O[C@H](CO)[C@@H](O)[C@H](O)[C@H]1O[C@@H]1O[C@H](CO)[C@@H](O)[C@H](O)[C@H]1O)C3 [stevioside, reference compound]
therapeutic effects on cardiac contractile function [8]: No significant therapeutic effects
therapeutic effects on arrhythmia ([2]; stevioside 10 to 15 mg/kg, rats): No significant therapeutic effects

CC1=NN(c2ccccc2)C(=O)C1 [Edaravone, reference compound]
Duration of mouth-opening (cerebral ischemia; [13]): 17.1 ± 4.3 s
Frequency of mouth-opening (cerebral ischemia; [13]): 13.1 ± 2.4
